Assay results reported in patent US7294627B2, “Chemical compounds” (Eli Lilly and Company, priority 2001, dated 2007).

Target: T1, human factor Xa (Homo sapiens, UniProt P00742)
T1 construct: 25 μL human factor Xa (32 nM in 0.03 M tris, 0.15 M NaCl, 1 mg/mL HSA); purchased Enzyme Research Laboratories (South Bend, Ind., USA)
Assay: Enzyme inhibition assay (apparent Kass, chromogenic substrate hydrolysis)
Format: biochemical
Settings: apparent association constant, human factor Xa 3.2 nM, BzIleGluGlyArgpNA substrate; 1/appKass=app Ki
Procedure: Human factor Xa and human thrombin are purchased from Enzyme Research Laboratories (South Bend, Ind., USA). Other proteases are from other commercial sources. Chromogenic para-nitroanilide peptide protease substrates are purchased from Midwest Biotech (Fishers, Ind., USA).
The binding affinities for human factor Xa are measured as apparent association constants (Kass) derived from protease inhibition kinetics as described previously.^a,b,c,d The apparent Kass values are obtained using automated (BioMek-1000) dilutions of inhibitors (Kass determinations are performed in triplicate at each of four-eight inhibitor concentrations) into 96-well plates and chromogenic substrate hydrolysis rates determined at 405 nm using a Thermomax plate reader from Molecular Devices (San Francisco). […] [Free Xa] and [bound Xa] are determined from linear standard curves on the same plate by use of SoftmaxPro software for each inhibitor concentration and apparent Kass calculated for each inhibitor concentration which produced hydrolysis inhibition between 20% and 80% of the control (3.2 nM factor Xa): apparent Kass=[E:I]/[Ef][If]=[Eb]/[Ef][I^o−I^b]. […] The variability of mean apparent Kass values determined at the single substrate concentration is +/−15%. […]

T1 sequence (P00742 235-488 limits assumed): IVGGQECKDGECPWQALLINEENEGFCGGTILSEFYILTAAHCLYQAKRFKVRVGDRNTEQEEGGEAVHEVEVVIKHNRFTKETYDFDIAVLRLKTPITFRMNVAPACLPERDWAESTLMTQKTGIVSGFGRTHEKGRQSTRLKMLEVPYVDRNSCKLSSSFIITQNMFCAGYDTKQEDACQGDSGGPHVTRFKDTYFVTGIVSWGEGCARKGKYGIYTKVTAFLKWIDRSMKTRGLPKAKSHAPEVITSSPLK
T1 sequence (P00742 41-179 partner limits assumed): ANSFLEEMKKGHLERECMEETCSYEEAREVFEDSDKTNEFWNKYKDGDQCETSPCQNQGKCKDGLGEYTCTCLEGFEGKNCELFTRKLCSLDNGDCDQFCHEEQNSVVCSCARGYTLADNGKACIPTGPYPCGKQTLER

SMILES: COc1ccc(C(=O)NC(C(=O)N2CCC(CN(C)c3ccncc3)CC2)c2ccccc2Cl)cc1.Cl (racemic) [Example 7]
- Kass: ~1.22e+08 L/mol
